These are literature values, as cited in patent publication US4127529A, “Novel eicosapeptides, intermediates therefor and pharmaceutical compositions and methods employing said eicosapeptides” (priority 1977, dated 1978).

The test system of data set [1] is brain opiate receptor sites. Conditions: natural peptide.
The conditions of data set [2]: injected directly into the brain of the rat.

On to “H-Tyr-Gly-Gly-Phe-Met-OH [methionine enkephalin]”, for which, in data set [1], the “binding to partially purified brain opiate receptor sites” value is on record as “binds stereo-specifically”. In addition, the analgesic activity result in data set [2] is reported as “only weak analgesic agent of short duration”.
